Legend:
[1] = test system: adult rat myocardium; assay: diffuse myocardial damage by single ISO injection in rats: eCSC activation; type: in vivo
Description: Adult c-kit^poseCSCs are scattered throughout the myocardium with higher density within the atria and the ventricular apex (10). When the apical myocardium is severely injured by catecholamine overdrives, induced through Isoproterenol bolus injection, c-kit^poseCSCs are rapidly activated and respond to damage by increasing their number (16) and differentiate into cardiomyocyte lineage (Unpublished data). The same growth response by these cells is detectable in the ischemic myocardium (17) as well as in hearts with pathologic or physiological overload (18,19). During embryonic life, a progressive process of cell specification or commitment, precisely regulated in space and time, determine cardiac muscle cell creation from cardiac progenitor cells (20). In the latter phenomenon, “cell-autonomous” decisions (intrinsic to a cell) are accompanied by “cell-non-autonomous” events, which entail extracellular cardiomyogenic instructive molecules known as morphogens or cardiopoietic growth factors (cGFs) (8,9). […] The mRNA levels for different cGFs and their detection by immunohistochemistry correlated with the levels of the corresponding protein (FIG. 4).
Diffuse myocardial damage was induced by a single injection (s.c.) of isoproterenol (ISO) to rats (5 mg kg^−1) or mice (200 mg kg^−1). […] Mer-CreMer mice were kindly provided by Drs. Tammie Bishop and Ludwig Thierfelder (see below). ZEG and RYP mice were purchased at Jackson Laboratory.
To follow c-kit^poseCSC physiological response to cardiac injury, we induced severe diffuse myocardial damage in adult rats with a single high dose of isoproterenol (ISO) (Ellison et al., 2007b). New cell formation was monitored with BrdU labeling in vivo (Waring et al., 2012). In the presence of a patent coronary circulation, ISO produces a Takotsubo-like cardiomyopathy (Akashi et al., 2008) with both diffuse sub-endocardial and apical CM death. This acute insult kills 8-10% of the LV CMs and results in overt acute heart failure (Ellison et al., 2007b). […] While in the normal myocardium (CTRL) most c-kit^poseCSCs are quiescent (>90% BrdU^neg and Ki67^neg), after ISO damage a high fraction enters the cell cycle (FIG. 14A-C and FIG. 21). At day 3, ˜88% are BrdU^pos (FIG. 14C), leading to an ˜8-fold increase in eCSC number, which decreases thereafter but remains above CTRL for up to 28 days (FIG. 14A).
The expansion of the eCSC pool in response to CM loss by ISO damage was followed by their commitment to myocardial cell lineages. […]

[2] = test system: rats after ISO damage; conditions: at 28 days
[3] = test system: adult rat myocardium; conditions: single high dose of ISO; cited from earlier work

For CC(C)NCC(O)c1ccc(O)c(O)c1 (stereo not drawn) [ISO, isoproterenol], the “expression of cardiopoietic growth factors in the myocardium” value ([1]; after ISO injection) was “significantly increased expression”, the “increase of c-kit^posNkx2.5^posGATA4^pos cells over CTRL” value ([1]; by day 3 after ISO) was about 4 fold and the “BrdU^pos c-kit^pos eCSCs” value ([1]; day 3 after ISO) was about 88%. For the same compound, the “increase in eCSC number” value ([1]; day 3 after ISO) was about 8 fold, the mortality [2] was 0 of 10 and the “LV CMs killed” value [3] was 8-10%.

Reference: US10526581B2, “Modulation of cardiac stem-progenitor cell differentiation, assays and uses thereof” (priority 2013, dated 2020)
